Where two headings read alike, the source gives them in different places.
Tests used:
[1] = tested on: Puccinia recondita f. sp. tritici; format: in vivo; conditions: foliar, wheat leaf disc preventative, inoculated 1 day after application, compared to untreated control
[2] = tested on: Magnaporthe grisea (Pyricularia oryzae); test: whole plant or invertebrate; format: in vivo; conditions: foliar, read-out: control of Magnaporthe grisea
[3] = tested on: Glomerella lagenarium (Colletotrichum lagenarium); test: Example A3: Glomerella lagenarium (Colletotrichum lagenarium) / liquid culture (anthracnose); format: cell-based; conditions: Colletotrichum orbiculare; read-out: control of Glomerella lagenarium
[4] = tested on: Monographella nivalis (Microdochium nivale); test: Example A6: Monographella nivalis (Microdochium nivale) / liquid culture (foot rot cereals); format: cell-based; conditions: read-out: control of Monographella nivalis
Pyrenophora teres = test: Example A12: Pyrenophora teres / barley / leaf disc preventative (net blotch); format: in vivo; conditions: foliar, inoculated 2 days after application, compared to untreated control
Alternaria solani = test: Example A1: Alternaria solani / tomato / leaf disc (early blight); format: in vivo; conditions: foliar, tomato leaf disks inoculated 2 days after application, compared to untreated control
[5] = tested on: Mycosphaerella graminicola (Septoria tritici); test: Example A14: Mycosphaerella graminicola (Septoria tritici) / liquid culture (Septoria blotch); format: cell-based; conditions: Zymoseptoria tritici; read-out: control of Mycosphaerella graminicola
[6] = tested on: Mycosphaerella arachidis (Cercospora arachidicola); test: Example A7: Mycosphaerella arachidis (Cercospora arachidicola) / liquid culture (early leaf spot); format: cell-based; conditions: read-out: control of Mycosphaerella arachidis
[7] = tested on: Puccinia recondita f. sp. tritici; format: in vivo; conditions: foliar, 24 h, wheat leaf disc curative, applied 1 day after inoculation, compared to untreated control
Phakopsora pachyrhizi = test: Example A8: Phakopsora pachyrhizi / soybean / preventative (soybean rust); format: in vivo; conditions: foliar, soybean leaf disks preventative, inoculated one day after application, compared to untreated control

CCOC(=O)OC(C)C(=O)N(c1cc(F)nc(F)c1)c1nc(C(=O)NC2CCC2)c(C)s1 (centres unmarked) [X.02, [2-[[4-(cyclobutylcarbamoyl)-5-methyl-thiazol-2-yl]-(2,6-difluoro-4-pyridyl)amino]-1-methyl-2-oxo-ethyl] ethyl carbonate]
≥ 80%: pest or weed control at 200 ppm [1] | pest or weed control at 200 ppm [2]

CCN(CC)C(=O)N(c1cc(F)nc(F)c1)c1nc(C(=O)NC2CCC2(C)C)c(C)s1 (centres unmarked) [X.16, 2-[diethylcarbamoyl-(2,6-difluoro-4-pyridyl)amino]-N-(2,2-dimethylcyclobutyl)-5-methyl-thiazole-4-carboxamide]
≥ 80%: inhibition of growth at 20 ppm [3] | inhibition of growth at 20 ppm [4] | pest or weed control at 200 ppm [2]

COCC(=O)N(c1cc(F)nc(F)c1)c1nc(C(=O)NC2CCC2)c(C)s1 [X.12, N-cyclobutyl-2-[(2,6-difluoro-4-pyridyl)-(2-methoxyacetyl)amino]-5-methyl-thiazole-4-carboxamide]
≥ 80%: inhibition of growth at 20 ppm [4] | pest or weed control at 200 ppm [1] | pest or weed control at 200 ppm [2] | pest or weed control at 200 ppm (Pyrenophora teres)

Cc1sc(N(C(=O)c2ccco2)c2cc(F)nc(F)c2)nc1C(=O)NC1CCC1(C)C (centres unmarked) [X.19, 2-[(2,6-difluoro-4-pyridyl)-(furan-2-carbonyl)amino]-N-(2,2-dimethylcyclobutyl)-5-methyl-thiazole-4-carboxamide]
≥ 80%: pest or weed control at 200 ppm [1] | pest or weed control at 200 ppm [2]

CC(=O)OC(C)C(=O)N(c1cc(F)nc(F)c1)c1nc(C(=O)NC2CCC23CCCC3)c(C)s1 (centres unmarked) [X.01, [2-[(2,6-difluoro-4-pyridyl)-[5-methyl-4-(spiro[3.4]octan-3-ylcarbamoyl)thiazol-2-yl]amino]-1-methyl-2-oxo-ethyl] acetate]
≥ 80%: pest or weed control at 200 ppm (Alternaria solani) | inhibition of growth at 20 ppm [3] | inhibition of growth at 20 ppm [4] | pest or weed control at 200 ppm [1] | pest or weed control at 200 ppm [2] | pest or weed control at 200 ppm (Pyrenophora teres) | inhibition of growth at 20 ppm [5]

Cc1sc(N(C(=O)C(C)O)c2cc(F)nc(F)c2)nc1C(=O)NC1CCC12CCCC2 (centres unmarked) [X.05, 2-[(2,6-difluoro-4-pyridyl)-(2-hydroxypropanoyl)amino]-5-methyl-N-spiro[3.4]octan-3-yl-thiazole-4-carboxamide]
≥ 80%: inhibition of growth at 20 ppm [3] | inhibition of growth at 20 ppm [4] | pest or weed control at 200 ppm [1] | pest or weed control at 200 ppm [2] | inhibition of growth at 20 ppm [5]

COC(=O)CC(=O)N(c1cc(F)nc(F)c1)c1nc(C(=O)NC2CCC2(C)C)c(C)s1 (centres unmarked) [X.18, methyl 3-[(2,6-difluoro-4-pyridyl)-[4-[(2,2-dimethylcyclobutyl)carbamoyl]-5-methyl-thiazol-2-yl]amino]-3-oxo-propanoate]
≥ 80%: pest or weed control at 200 ppm (Alternaria solani) | inhibition of growth at 20 ppm [3] | inhibition of growth at 20 ppm [4] | inhibition of growth at 20 ppm [6] | pest or weed control at 200 ppm [7] | pest or weed control at 200 ppm [1] | pest or weed control at 200 ppm [2] | pest or weed control at 200 ppm (Pyrenophora teres) | inhibition of growth at 20 ppm [5]

COC(=O)OC(C)C(=O)N(c1cc(F)nc(F)c1)c1nc(C(=O)NC2CCC23CCCC3)c(C)s1 (centres unmarked) [X.03, [2-[(2,6-difluoro-4-pyridyl)-[5-methyl-4-(spiro[3.4]octan-3-ylcarbamoyl)thiazol-2-yl]amino]-1-methyl-2-oxo-ethyl] methyl carbonate]
≥ 80%: inhibition of growth at 20 ppm [3] | inhibition of growth at 20 ppm [4] | pest or weed control at 200 ppm [1] | pest or weed control at 200 ppm [2] | pest or weed control at 200 ppm (Pyrenophora teres) | inhibition of growth at 20 ppm [5]

Cc1sc(N(C(=O)CF)c2cc(F)nc(F)c2)nc1C(=O)NC1CCC1(C)C (centres unmarked) [X.27, 2-[(2,6-difluoro-4-pyridyl)-(2-fluoroacetyl)amino]-N-(2,2-dimethylcyclobutyl)-5-methyl-thiazole-4-carboxamide]
≥ 80%: pest or weed control at 200 ppm (Alternaria solani) | inhibition of growth at 20 ppm [3] | inhibition of growth at 20 ppm [4] | inhibition of growth at 20 ppm [6] | pest or weed control at 200 ppm (Phakopsora pachyrhizi) | pest or weed control at 200 ppm [7] | pest or weed control at 200 ppm [1] | pest or weed control at 200 ppm ([2]; 200 ppm) | pest or weed control at 200 ppm (Pyrenophora teres) | inhibition of growth at 20 ppm [5]

COC(C)C(=O)N(c1cc(F)nc(F)c1)c1nc(C(=O)NC2CCC2)c(C)s1 (centres unmarked) [X.07, N-cyclobutyl-2-[(2,6-difluoro-4-pyridyl)-(2-methoxypropanoyl)amino]-5-methylthiazole-4-carboxamide]
≥ 80%: pest or weed control at 200 ppm (Phakopsora pachyrhizi) | pest or weed control at 200 ppm [1] | pest or weed control at 200 ppm [2]

COC(=O)N(c1cc(F)nc(F)c1)c1nc(C(=O)NC2CCC2(C)C)c(C)s1 (centres unmarked) [X.32, methyl N-(2,6-difluoro-4-pyridyl)-N-[4-[(2,2-dimethylcyclobutyl)carbamoyl]-5-methyl-thiazol-2-yl]carbamate]
≥ 80%: pest or weed control at 200 ppm [2]

Cc1sc(N(C(=O)Oc2ccccc2)c2cc(F)nc(F)c2)nc1C(=O)NC1CCC1(C)C (centres unmarked) [X.26, phenyl N-(2,6-difluoro-4-pyridyl)-N-[4-[(2,2-dimethylcyclobutyl)carbamoyl]-5-methyl-thiazol-2-yl]carbamate]
≥ 80%: inhibition of growth at 20 ppm [4] | pest or weed control at 200 ppm [2]

Cc1sc(N(C(=O)c2cccs2)c2cc(F)nc(F)c2)nc1C(=O)NC1CCC1(C)C (centres unmarked) [X.31, 2-[(2,6-difluoro-4-pyridyl)-(thiophene-2-carbonyl)amino]-N-(2,2-dimethylcyclobutyl)-5-methyl-thiazole-4-carboxamide]
≥ 80%: inhibition of growth at 20 ppm [4] | pest or weed control at 200 ppm [2]

CC(=O)N(c1cc(F)nc(F)c1)c1nc(C(=O)NC2CCC2)c(C)s1 [X.13, 2-[acetyl-(2,6-difluoro-4-pyridyl)amino]-N-cyclobutyl-5-methyl-thiazole-4-carboxamide]
≥ 80%: pest or weed control at 200 ppm [1] | pest or weed control at 200 ppm [2]

CCOC(=O)OC(C)C(=O)N(c1cc(F)nc(F)c1)c1nc(C(=O)NC2CCC23CCCC3)c(C)s1 (centres unmarked) [X.04, [2-[(2,6-difluoro-4-pyridyl)-[5-methyl-4-(spiro[3.4]octan-3-ylcarbamoyl)thiazol-2-yl]amino]-1-methyl-2-oxo-ethyl] ethyl carbonate]
≥ 80%: pest or weed control at 200 ppm (Alternaria solani) | inhibition of growth at 20 ppm [3] | inhibition of growth at 20 ppm [4] | inhibition of growth at 20 ppm [6] | pest or weed control at 200 ppm [1] | pest or weed control at 200 ppm [2] | pest or weed control at 200 ppm (Pyrenophora teres) | inhibition of growth at 20 ppm [5]

COC(=O)CCC(=O)N(c1cc(F)nc(F)c1)c1nc(C(=O)NC2CCC2(C)C)c(C)s1 (centres unmarked) [X.23, methyl 4-[(2,6-difluoro-4-pyridyl)-[4-[(2,2-dimethylcyclobutyl)carbamoyl]-5-methyl-thiazol-2-yl]amino]-4-oxo-butanoate]
≥ 80%: pest or weed control at 200 ppm (Alternaria solani) | inhibition of growth at 20 ppm [3] | inhibition of growth at 20 ppm [4] | pest or weed control at 200 ppm [7] | pest or weed control at 200 ppm [1] | pest or weed control at 200 ppm [2] | pest or weed control at 200 ppm (Pyrenophora teres)

Cc1sc(N(C(=O)CC(F)(F)F)c2cc(F)nc(F)c2)nc1C(=O)NC1CCC1(C)C (centres unmarked) [X.21, 2-[(2,6-difluoro-4-pyridyl)-(3,3,3-trifluoropropanoyl)amino]-N-(2,2-dimethylcyclobutyl)-5-methyl-thiazole-4-carboxamide]
≥ 80%: pest or weed control at 200 ppm (Alternaria solani) | inhibition of growth at 20 ppm [3] | inhibition of growth at 20 ppm [4] | inhibition of growth at 20 ppm [6] | pest or weed control at 200 ppm [7] | pest or weed control at 200 ppm [1] | pest or weed control at 200 ppm [2] | inhibition of growth at 20 ppm [5]

COCCOC(=O)N(c1cc(F)nc(F)c1)c1nc(C(=O)NC2CCC2(C)C)c(C)s1 (centres unmarked) [X.28, 2-methoxyethyl N-(2,6-difluoro-4-pyridyl)-N-[4-[(2,2-dimethylcyclobutyl)carbamoyl]-5-methyl-thiazol-2-yl]carbamate]
≥ 80%: inhibition of growth at 20 ppm [4] | pest or weed control at 200 ppm [7] | pest or weed control at 200 ppm [1] | pest or weed control at 200 ppm [2]

Cc1sc(N(C(=O)Cc2ccccc2)c2cc(F)nc(F)c2)nc1C(=O)NC1CCC1(C)C (centres unmarked) [X.09, 2-[(2,6-difluoro-4-pyridyl)-(2-phenylacetyl)amino]-N-(2,2-dimethylcyclobutyl)-5-methyl-thiazole-4-carboxamide]
≥ 80%: pest or weed control at 200 ppm (Alternaria solani) | inhibition of growth at 20 ppm [3] | inhibition of growth at 20 ppm [4] | pest or weed control at 200 ppm [1] | pest or weed control at 200 ppm [2] | inhibition of growth at 20 ppm [5]

COc1sc(N(C(C)=O)c2cc(F)nc(F)c2)nc1C(=O)NC1CCC12CCCC2 (centres unmarked) [X.10, 2-[acetyl-(2,6-difluoro-4-pyridyl)amino]-5-methoxy-N-spiro[3.4]octan-3-yl-thiazole-4-carboxamide]
≥ 80%: pest or weed control at 200 ppm [2] | pest or weed control at 200 ppm (Pyrenophora teres)

CC(=O)N(c1cc(F)nc(F)c1)c1nc(C(=O)NC2CCC23CCCC3)c(C)s1 (centres unmarked) [X.37, 2-[acetyl-(2,6-difluoro-4-pyridyl)amino]-5-methyl-N-spiro[3.4] octan-3-yl-thiazole-4-carboxamide]
≥ 80%: pest or weed control at 200 ppm [2] | pest or weed control at 200 ppm (Pyrenophora teres)

From patent publication US20230270114A1, “FUNGICIDAL COMPOSITIONS” (SYNGENTA CROP PROTECTION AG, priority 2020, published 2023)
